Results as given in the RepoRT retention time repository.

Test: HILIC, Merck SeQuant ZIC-HILIC, 25 °C, 0.25 mL/min; A: water + 16 mM ammonium formate; B: acetonitrile + 0.1% formic acid, pH 3; gradient (min/%B) 0/97 2/97 10/70 15/10 17/10 18/97 25/97
Conditions: stereoisomer not certain

| Compound | LC retention time |
| --- | --- |
| O=c1[nH]c(=O)c2ncn(C3OC(COP(=O)(O)O)C(O)C3O)c2[nH]1 (configuration not stated) [XANTHOSINE-MONOPHOSPHATE] | 14.4 min |
| O=C(O)CC(O)C(=O)O (configuration not stated) [MALATE] | 8.89 min |
| NC1CCSC1=O (configuration not stated) [HOMOCYSTEINE THIOLACTONE] | 11.8 min |
| CCCCCCCCC=CCCCCCCCC(=O)OCC(CO)OC(=O)CCCCCCCC=CCCCCCCCC (configuration not stated) [1-2-dioleoyl-sn-glycerol] | 1.49 min |
| CSCC1OC(n2cnc3c(N)ncnc32)C(O)C1O (configuration not stated) [METHYLTHIOADENOSINE] | 4.75 min |
| NC1C(O)OC(COS(=O)(=O)O)C(O)C1O (configuration not stated) [GLUCOSAMINE 6-SULFATE] | 15.5 min |
| Nc1ccc(C(=O)O)cc1 [4-AMINOBENZOATE] | 2.12 min |
| Nc1ncnc2c1ncn2C1OC(COP(=O)(O)OP(=O)(O)OCC2OC(O)C(O)C2O)C(O)C1O (configuration not stated) [ADENOSINE DIPHOSPHATE RIBOSE] | 14.6 min |
| [NH3+]CC(=O)N1CCCC1C(=O)[O-] (configuration not stated) [Gly-Pro] | 15 min |
| O=C(O)CC(Cc1ccccc1)C(=O)O (racemic) [dl-benzylsuccinic acid] | 2.15 min |
| O=P(O)(O)OC1OC(CO)C(O)C(O)C1O (configuration not stated) [GALACTOSE 1-PHOSPHATE] | 14.7 min |
| CC(C)(CCC(=O)O)C(=O)O [2-2-Dimethylglutaric acid] | 2.1 min |
| O=C([O-])C=CC(=O)[O-] [MALEATE] | 2.17 min |
| NC(CSCC(=O)O)C(=O)O (configuration not stated) [S-CARBOXYMETHYLCYSTEINE] | 14.4 min |
| CC(CCC(=O)O)C1CCC2C3C(O)CC4CC(O)CCC4(C)C3CCC12C (configuration not stated) [CHENODEOXYCHOLATE] | 1.85 min |
| NCCCN [1-3-DIAMINOPROPANE] | 17.6 min |
| CCC(C)C(=O)C(=O)O (configuration not stated) [3-METHYL-2-OXOVALERATE] | 1.73 min |
| CNCC(=O)O [SARCOSINE] | 13.6 min |
| Nc1cc([O-])cc(C(=O)O)c1 [3-AMINO-5-HYDROXYBENZOATE] | 2.16 min |
| CCCC(=O)[O-] [BUTANOATE] | 2.15 min |
| C[N+](C)(C)CCOP(=O)(O)OP(=O)([O-])OCC1OC(n2ccc(N)nc2=O)C(O)C1O (configuration not stated) [CITICOLINE] | 15.7 min |
| CC(C)CC(=O)OC(CC(=O)[O-])C[N+](C)(C)C [Isovaleryl-L-carnitine] | 10.2 min |
| Nc1ccc(C(=O)NCC(=O)O)cc1 [Aminohippuric acid] | 5.96 min |
| CC(O)C(=O)O (configuration not stated) [LACTATE] | 2.75 min |

| Compound | LC retention time |
| --- | --- |
| O=C(O)C(O)CO (configuration not stated) [GLYCERATE] | 8.39 min |
| O=C(O)Cc1c[nH]c2ccccc12 [INDOLE-3-ACETATE] | 2.06 min |
| C[S+](CCC(N)C(=O)[O-])CC1OC(n2cnc3c(N)ncnc32)C(O)C1O (configuration not stated) [S-ADENOSYLMETHIONINE] | 15.9 min |
| CC(=O)NC(CSSCC(NC(C)=O)C(=O)O)C(=O)O (configuration not stated) [N-ACETYLCYSTEINE-dimere] | 13.2 min |
| O=c1[nH]cnc2c1ncn2C1OC(CO)C(O)C1O (configuration not stated) [INOSINE] | 10.3 min |
| CCCCCCCCCCCCCCCCCCCCCCC(=O)[O-] [TRICOSANOATE] | 1.53 min |
| NCC(O)CCC(N)C(=O)O (configuration not stated) [5-HYDROXYLYSINE] | 16.2 min |
| O=C(O)Cc1ccc(O)cc1 [4-Hydroxyphenylacetic acid] | 2.34 min |
| O=C(O)CCCCCCCCCO [10-HYDROXYDECANOATE] | 1.75 min |
| NCCCCC(=O)O [5-AMINOPENTANOATE] | 12.6 min |
| NC(=O)c1ccc[n+](C2OC(COP(=O)([O-])O)C(O)C2O)c1 (configuration not stated) [NICOTINAMIDE MONONUCLEOTIDE] | 14.7 min |
| O=C(OC1Cc2c(O)cc(O)cc2OC1c1cc(O)c(O)c(O)c1)c1cc(O)c(O)c(O)c1 (single isomer, unassigned; (-)) [(-)-Epigallocatechin gallate] | 12.4 min |
| C[N+](C)(C)CCOP(=O)(O)O [PHOSPHORYLCHOLINE] | 15.6 min |
| CN1C(=O)CCC1c1cccnc1 (configuration not stated) [Cotinine] | 2.21 min |
| CCCCCCCCCCCCCCCCCCOCC(O)COP(=O)([O-])OCC[N+](C)(C)C (configuration not stated) [C18_LysoPAF] | 11.3 min |
| CC12CCC(O)CC1CCC1C2C(O)CC2(C)C1CCC2(O)C(=O)CO (configuration not stated) | 1.91 min |
| O=C(O)c1ccc[nH]1 [PYRROLE-2-CARBOXYLATE] | 2.08 min |
| Cn1cncc1CC(NC(=O)CCN)C(=O)O (configuration not stated) [ANSERINE] | 16.1 min |
| NC(=O)c1ccc[n+](C2OC(COP(=O)(O)OP(=O)(O)OCC3OC(n4cnc5c(N)ncnc54)C(O)C3O)C(O)C2O)c1 (stereo not drawn) [BETA-NICOTINAMIDE ADENINE DINUCLEOTIDE] | 14.6 min |
| CC(CC(=O)O)C(=O)O (configuration not stated) [Methyl-succinic acid] | 2.18 min |
| NC(Cc1cc(I)c(Oc2ccc(O)cc2)c(I)c1)C(=O)O [3-5-DIIODO-L-THYRONINE] | 9.3 min |
| NCCS(=O)O [HYPOTAURINE] | 13.9 min |
| O=C([O-])C(O)C(O)C(=O)[O-] (stereo not drawn) [MESO-TARTRATE] | 13.6 min |
